pIC50: −log10 of the molar value. ≈ marks a conversion by molar mass, not a printed value. Like-named read-outs stand apart in the source and are kept apart here.

Data set [1] concerns human mammary epithelial tumor cells (MCF7). Put plainly: Cytotoxic effect on MCF7 cells, colony formation in culture. Type of data set: cell-based. The note with it: dose required to reduce by 50% the number of colonies, 37° C., 12-14 days, read-out: ID50 MCF7. As for the experimental part: (§1) (A) The cytotoxic effects of a variety of compounds of formula (II) on human adenocarcinoma cells of the colon (LOVO) and human mammary epithelial tumor cells (MCF7) grown in culture were studied. A range of doses of the drugs was added on day one to replicate cultures of several hundred cells each, which were then incubated at 37° C. for 12-14 days. The cultures were then fixed and stained and the numbers of colonies per dish counted. The results obtained are shown in Table 1, the individual compounds being identified by the groups R1, R2 and R3 present therein, the last mentioned compound being the compound of formula (I) having R1 =H and R2 =CH3 which is used as a control. The results are expressed in terms of the ID50 which is the dose required to reduce by 50% the number of colonies growing up in the drug-treated cultures compared with untreated controls.

Data set [2] relates to human adenocarcinoma cells of the colon (LOVO). Put plainly: Cytotoxic effect on LOVO cells, colony formation in culture. Type of data set: cell-based. Particulars: dose required to reduce by 50% the number of colonies, 37° C., 12-14 days, read-out: ID50 LOVO. As for the experimental part: as §1
Another data set is described as follows: Water solubility. Type of data set: physicochemical. The text has this:
By modification of the nature of the ester groups it is possible to alter the water solubility, lipophilicity and rate of conversion to the active cytotoxic molecules (I). […] Similarly, increased lipophilicity may be obtained in these prodrugs by the introduction of, for example, hydrocarbon groupings such as isobutyl or benzyl and this is reflected by the relatively high Rf values in a 50% v/v chloroform/ethanol/SiO2 thin layer chromatography system as recorded in the Examples given hereinafter. An increased lipophilicity favours better absorption and changes in tissue distribution such as greater penetration of the central nervous system. The more lipophilic products are also the most attractive candidates for the percutaneous treatment of psoriasis. Further, depending upon whether R3 is an electron-withdrawing group, for example benzyl, propargyl or carbethoxymethyl, or an electron-repelling group, for example isobutyl, hydroxyethyl or methoxyethyl, the rate of conversion of the compound (II) to the corresponding compound (I) can be speeded up or slowed down. Thus, by providing some control over the water solubility, lipophilicity and rate of generation of the active species, the prodrug compounds of the present invention provide the ability to modify the tissue distribution and pharmacodynamics of the dioxopiperazine drugs with consequential therapeutic benefit to the patient.

A short description of data set [3]: Incubation under physiological conditions: formation of (I) from the 14C-labelled dimethyl ester and hydrolysis of the diimide (HPLC). It is filed as physicochemical. The note with it: pH 7.2, 37° C. As for the experimental part: (B) The rate of formation of the active antitumor agent (I) having R1 […] R2 =H from the corresponding ^14 C-labelled dimethyl ester (II) (R1 =R2 =H, R3 =CH3) following incubation under physiologically conditions, i.e. at 37° C. and pH and 7.2 in normal (0.15M) phosphate buffered saline [Practical Immunology, Hudson and hay (editors), Blackwell Scientific Publications, Second Edition, 1980, page 336] was studied. Sample of the incubation mixture were fractionated at different time intervals using HPLC with a reverse phase ODS column and an aqueous methanol gradient elution system.

A short description of another data set: Absorption by mouth. Type of data set: in vivo. Particulars: oral; in words.
The mark [4] stands for this setting: esters corresponding to the diimide (I) in which R1 =R2 =H, read-out: water solubilities.

Consider `CC(CN(CC(N)=O)CC(=O)OCc1ccccc1)N(CC(N)=O)CC(=O)OCc1ccccc1` (racemic) [R1=CH3, R2=H, R3=CH2 C6 H5, dl-NN'-Dibenzyloxycarbonylmethyl-NN'-diaminocarbonylmethyl-1,2-diaminopropane], for which the pIC50 in data set [1] was 4.66; in data set [2] it was 4.77.
For `CC(CN(CC(N)=O)CC(=O)OCc1ccccc1[N+](=O)[O-])N(CC(N)=O)CC(=O)OCc1ccccc1[N+](=O)[O-]` (racemic) [R1=CH3, R2=H, R3=o-NO2 --CH2 C6 H5, dl-NN'-Di-o-nitrobenzyloxycarbonylmethyl)-NN'-diaminocarbonylmethyl-1,2-diaminopropane], in that order: 4.80 and 4.96.
The matching figures for `CC(CN(CC(N)=O)CC(=O)OCc1ccc([N+](=O)[O-])cc1)N(CC(N)=O)CC(=O)OCc1ccc([N+](=O)[O-])cc1` (racemic) [R1=CH3, R2=H, R3=p-NO2 --CH2 C6 H5, dl-NN'-Di-p-nitrobenzyloxycarbonylmethyl-NN'-diaminocarbonylmethyl-1,2-diaminopropane]: 4.68 and 4.85.
`C[C@H]([C@H](C)N(CC(N)=O)CC(=O)OCC(=O)O)N(CC(N)=O)CC(=O)OCC(=O)O` [R1=CH3, R2=CH3, R3=CH2 CO2 H, meso-NN'-Di-(carboxymethyloxycarbonylmethyl)-NN'-diaminocarbonylmethyl-2,3-diaminobutane]: the values for the pIC50 in data set [1] and in data set [2] were 5.96 and 6.70, respectively.
For `CC(CN1CC(=O)NC(=O)C1)N1CC(=O)NC(=O)C1` (stereo not drawn) [R1=CH3, R2=H, cyclic imide, reference compound], in that order: 4.77 and 4.74.
The matching figures for `CCCCOCCOC(=O)CN(CCN(CC(N)=O)CC(=O)OCCOCCCC)CC(N)=O` [R1=H, R2=H, R3=CH2 CH2 O(CH2)3 CH3, NN'-Di-(2-n-butoxyethoxy)carbonylmethyl-NN'-diaminocarbonylmethyl-1,2-diaminoethane]: 4.44 and 4.33.
For the molecule `NC(=O)CN(CCN(CC(N)=O)CC(=O)OCCO)CC(=O)OCCO` [R1=H, R2=H, R3=CH2 CH2 OH, NN'-Di-(2-hydroxyethoxy)carbonylmethyl-NN'-diaminocarbonylmethyl-1,2-diaminoethane], the solubility in “Water solubility” (setting [4]) is over 20 mg/mL.
`CC(C)COC(=O)CN(CCN(CC(N)=O)CC(=O)OCC(C)C)CC(N)=O` [R1=H, R2=H, R3=CH2 CH(CH3)2, NN'-Di-isobutoxycarbonylmethyl-NN'-diaminocarbonylmethyl-1,2-diaminoethane]: the pIC50 in data set [1] was 3.92; in data set [2] it was 3.99.
The matching figures for `NC(=O)CN(CCN(CC(N)=O)CC(=O)OCC(=O)O)CC(=O)OCC(=O)O` [R1=H, R2=H, R3=CH2 CO2 H, NN'-Di-(carboxymethyloxycarbonylmethyl)-NN'-diaminocarbonylmethyl-1,2-diamonoethane]: 4.34 and 4.17.
`COC(=O)CN(CCN(CC(N)=O)CC(=O)OC)CC(N)=O` [R1=H, R2=H, R3=CH3, NN'-Dimethoxycarbonylmethyl-NN'-diaminocarbonylmethyl-1,2-diaminoethane]: the figures for the pIC50 in data set [1] and in data set [2] were 4.41 and 4.55, respectively. For the same molecule, the solubility in “Water solubility” (setting [4]) was over 20 mg/mL. In addition, the “formation of the active cytotoxic species (I) by cyclisation of the bis-ester” value in data set [3] (0.15M phosphate buffered saline, the Figure, in words) is recorded as “leads to a sustained concentration of the active cytotoxic species”.
Regarding `O=C1CN(CCN2CC(=O)NC(=O)C2)CC(=O)N1` [diimide (I) R1=R2=H, 1,2-bis-(3,5-dioxopiperazin-1-yl)ethane, reference compound], in the data set “Absorption by mouth”, the absorption by mouth entry was “not being well absorbed by mouth”. Besides, the solubility in “Water solubility” (20° C., pH 7.2, read-out: water solubility) is about 0.1 mg/mL (≈ 0.393 mM). The half-life in data set [3] (normal (0.15M) phosphate buffered saline, read-out: half life (hydrolysis to an inactive form) (converted)) is about 12 h.
